Results on one molecule are retold here after patent publication US11299538B2, “Anti-IGF antibodies” (Boehringer Ingelheim International GmbH, priority 2008, dated 2022).

In the experiment the test system is SK-ES-1 cells. The experiment is described as follows: Ewing's sarcoma-derived cell line growth assay, combination with rapamycin. The following applies: Homo sapiens, SK-ES1, 100 nM (each agent), FIG. 8, read-out: proliferation inhibition. Type of experiment: cell-based. As to the method: The typical concentrations used are 30, 10, 3.3, 1.1, 0.37, and 0.12 μg/ml (or 100, 10, 1, 0.1, 0.01, 0.001 nM rapamycin and test antibody for combination studies) and each dilution is performed in triplicate wells. The cells plus antibody are then incubated for 120 hours after which time the relative cell number in each well is determined using the CellTiter-Glo luminescent cell viability assay (Promega). Luminescence (LU=Luminescence Units) is recorded using a XFluor GENios Pro 4 and for data analysis the mean value from triplicate wells is taken and fitted by iterative calculations using a sigmoidal curve analysis program (Graph Pad Prism) with variable Hill slope.

As for `CO[C@H]1C[C@@H]2CC[C@@H](C)[C@@](O)(O2)C(=O)C(=O)N2CCCC[C@H]2C(=O)O[C@H]([C@H](C)C[C@@H]2CC[C@@H](O)[C@H](OC)C2)CC(=O)[C@H](C)/C=C(\C)[C@@H](O)[C@@H](OC)C(=O)[C@H](C)C[C@H](C)/C=C/C=C/C=C/1C` [rapamycin, reference compound], the inhibition at 0.1 µM is about 60%.
